Source: patent publication US10752581B2, “4-((2-hydroxy-3-methoxybenzyl)amino)benzenesulfonamide derivatives as potent and selective inhibitors of 12-lipoxygenase” (Eastern Virginia Medical School, priority 2013, dated 2020)
“Also recorded” adds a separate entry of the source.

Columns and labels:
washed human platelets = experiment: FcγRIIa-mediated platelet aggregation; format: cell-based; conditions: ML355 20 μM, 15 minutes; anti-CD9 stimulation or IV.3 + GAM cross-linking
Excerpt: (§1) Preparation of washed human platelets: Prior to blood collection written informed consent was obtained from all volunteers. Washed platelets were isolated from the blood of healthy volunteers as previously described (14). Washed platelets were resuspended in tyrodes buffer at 3.0×10^8 platelets/mL unless otherwise indicated.
(§2) FcγRIIa-mediated platelet activation: FcγRIIa-mediated platelet activation was initiated by two distinct models; either 1) FcγRIIa antibody cross-linking or 2) CD9 monoclonal antibody stimulation. To cross-link FcγRIIa, washed platelets were incubated with IV.3, an FcγRIIa mouse monoclonal antibody, for one minute followed by the addition of a goat anti-mouse (GAM) IgG antibody to cross-link FcγRIIa. The concentration of FcγRIIa cross-linking antibodies used for each experiment is indicated in the text. Alternatively, washed human platelets were stimulated with an anti-CD9 monoclonal antibody to activate FcγRIIa mediated signaling. Due to inter-individual variability in anti-CD9 response, a range of anti-CD9 concentration (0.25-1 μg/ml) was used to achieve an aggregation of EC80. […]
Platelet aggregation: Platelet aggregation was measured with a lumi-aggregometer (Chronolog Corp, Model 700D) under stirring conditions at 37° C.

[1] = system: FcγRIIa-stimulated platelets; experiment: αIIbβ3 activation after FcγRIIa stimulation; format: cell-based, human; conditions: ML355 pre-treatment; IV.3 + GAM
Excerpt: as §1
as §2, with “signaling.” for “signaling. Due to inter-individual variability in anti-CD9 response, a range of anti-CD9 concentration (0.25-1 μg/ml) was used to achieve an aggregation of EC80.”
Alpha granule release and αIIbβ3 activation: Prior to stimulation, washed platelets were pre-incubated with a either FITC-conjugated P-selectin antibody or FITC-conjugated PAC-1, an antibody specific for the active conformation of αIIb3. […] Fluorescence intensity was measured by flow cytometry. Results are reported as mean fluorescence intensity.

[2] = system: FcγRIIa-stimulated platelets; experiment: Syk phosphorylation after FcγRIIa cross-linking; format: cell-based, human; conditions: ML355 (20 μM)
Experimental: FIGS. 15A-15B show the role of 12-LOX in regulating the FcγRIIa signaling complex. Washed human platelets were pre-treated with ML355 (20 μM) or vehicle control prior to IV.3 and GAM stimulation. (FIG. 15A) Immunoprecipitation of FcγRIIa at 15, 30, and 60 seconds post crosslinking and measured for phosphorylation via Western blot. (FIG. 15B) Platelets were lysed following FcγRIIa cross-linking in the presence of ML355 or DMSO were immunoblotted for active (pY323) and total Syk.
Phosphorylation of FcγRIIa results in recruitment and activation of the tyrosine kinase Syk which is crucial for the formation of the LAT signalosome. The phosphorylation of Syk was measured following FcγRIIa stimulation of platelets in the presence or absence of ML355. The degree of Syk phosphorylation in response to FcγRIIa cross-linking in the presence of ML355 was varied in the subjects tested and may be due to inter-individual variability. […] To assess if 12-LOX regulates PLCy2 activation downstream of FcγRIIa, PLCy2 phosphorylation was measured in washed human platelets in the presence or absence of ML355. Platelets stimulated by FcγRIIa antibody cross-linking were phosphorylated within 15 seconds following stimulation. […]

[3] = system: FcγRIIa-stimulated platelets; experiment: PLCγ2 phosphorylation after FcγRIIa cross-linking; format: cell-based, human; conditions: ML355 (20 μM); 15 and 30 seconds
Experimental: FcγRIIa-mediated platelet activation: FcγRIIa-mediated platelet activation was initiated by two distinct models; either 1) FcγRIIa antibody cross-linking or 2) CD9 monoclonal antibody stimulation. To cross-link FcγRIIa, washed platelets were incubated with IV.3, an FcγRIIa mouse monoclonal antibody, for one minute followed by the addition of a goat anti-mouse (GAM) IgG antibody to cross-link FcγRIIa. The concentration of FcγRIIa cross-linking antibodies used for each experiment is indicated in the text. Alternatively, washed human platelets were stimulated with an anti-CD9 monoclonal antibody to activate FcγRIIa mediated signaling. Due to inter-individual variability in anti-CD9 response, a range of anti-CD9 concentration (0.25-1 μg/ml) was used to achieve an aggregation of EC80. In studies using the 12-LOX inhibitor (ML355), washed platelets were incubated with either ML355 (20 μM), or DMSO (vehicle control) for 15 minutes prior to FcγRIIa stimulation.
PLCγ2 phosphorylation: Washed human platelets were adjusted to 5×10^8 platelets/mL and stimulated in an aggregometer by antibody cross-linking of FcγRIIa and lysed at designated times with 5× reducing buffer to stop the reaction. Samples were separated on a 7.5% SDS-PAGE gel. Antibodies to PLCy2 and phospho-Y759 PLCy2, a marker of PLCy2 activation, were used to evaluate the relative levels of total and active PLCy2, respectively.

COc1cccc(CNc2ccc(S(=O)(=O)Nc3nc4ccccc4s3)cc2)c1O [Compound 35, N-(benzo[d]thiazol-2-yl)-4-((2-hydroxy-3-methoxybenzyl)amino)benzenesulfonamide]
FcγRIIa-mediated platelet aggregation (washed human platelets): attenuated FcγRIIa-mediated platelet aggregation; also recorded: significantly attenuated aggregation | αIIbβ3 activation [1]: significant attenuated along multiple signaling steps | Syk phosphorylation [2]: attenuation of Syk phosphorylation in the presence of ML355 was minor | PLCγ2 phosphorylation [3]: attenuated PLCy2 phosphorylation at 15 and 30 seconds
